PMC10824102, “Identification of small molecule inhibitors of G3BP-driven stress granule formation” (The Journal of Cell Biology, 2024)

Columns and labels:
[1] = test system: preformed stress granules in U2OS cells stably expressing G3BP1-GFP; assay: Post-addition: dissolution of preformed arsenite-induced stress granules; assay type: cell-based; details: 50 μM added after 30 min of 250 μM NaAsO2
Protocol: For post-addition of compounds, U2OS cells stably expressing G3BP1-GFP were seeded into eight-well Lab-Tek chambered cover glass (Nunc) for sodium arsenite experiments or 35-mm glass-bottom dishes (MatTek) for heat shock experiments. Immediately prior to the experiment, media was replaced with FluoroBrite DMEM media (Gibco) in each well supplemented with 10% FBS and 4 mM L-glutamine; for sodium arsenite experiments, arsenite was added at a final concentration of 250 μM. Cells were then placed on a microscope on which 37°C temperature and 5% CO2 were maintained using a Bold Line Cage Incubator (Okolab) and an objective heater (Bioptechs), and 5–10 xy fields were stored. For sodium arsenite experiments, acquisition began immediately after finding all xy positions, 4 min after the addition of sodium arsenite. 30 min after arsenite was added, 250 μl FluoroBrite DMEM with 250 μM sodium arsenite and 0.1 mM (2×) G3I compound (vortexed for 5 s) was added to the sample. For heat shock experiments, each xy position was imaged every minute. At 2 min into the acquisition, the objective heater was ramped to 43°C. Following this, 250 μM (5×) G3I compound was prepared in FluoroBrite DMEM and vortexed for 15 s. This solution was kept on a 47°C heater near the microscope along with a pipette tip. […]

[2] = test system: stress granule formation in WT cell line with endogenous G3BP1; assay: Stress granule formation in WT cell line with endogenous G3BP1 (immunofluorescence); assay type: cell-based; details: Figure S2H: 50 μM, 250 μM NaAsO2 for 30 min
Protocol: U2OS cells or U2OS cells stably expressing G3BP1-GFP were seeded in four-well Lab-Tek II Chambered Coverglass (1055360; Thermo Fisher Scientific). For preincubation experiments, cells were treated with 50 μM G3I compound for 20 min or 24 h, followed by 250 μM NaAsO2 and 50 μM G3I compound for 30 min. For posttreatment, cells were treated with 250 μM NaAsO2 for 30 min, followed by treatment with 250 μM NaAsO2 and 50 μM G3I compound for 5 min. Cells were then washed twice with PBS and fixed with 4% PFA in PBS for 10 min. Cells were then washed three times with PBS (5 min between each wash), permeabilized with 0.5% Triton X-100 in PBS for 10 min, and washed twice with PBS. Next, cells were blocked for 1 h with 3% BSA in PBS at room temperature, followed by incubation with primary antibodies diluted in 3% BSA overnight at 4°C. Cells were then washed three times with PBS (5 min between each wash) and incubated with secondary antibodies and Hoechst diluted in 3% BSA at room temperature for 1 h. Cells were then washed three times with PBS (5 min between each wash) and imaged. Primary antibodies were as follows: G3BP1 (Cat# 611127, RRID:AB_398438; BD Biosciences) at 1:200; TDP-43 (Cat# 12892-1-AP, RRID:AB_2200505; Proteintech) at 1:50; eIF3η (Cat# sc-137214, RRID:AB_2277705; Santa Cruz Biotechnology) at 1:100 dilution; PABP (Cat# ab21060, RRID:AB_777008; Abcam) at 1:1,000 dilution; and FXR1 (Cat# ab51970, RRID:AB_880113; Abcam) at 1:100 dilution. Secondary antibodies were as follows: donkey anti-mouse Alexa Fluor 647 (Cat# A-31571, RRID:AB_162542; Thermo Fisher Scientific), donkey anti-rabbit Alexa Fluor 555 (Cat# A-31572 [also A31572], RRID:AB_162543; Thermo Fisher Scientific), and donkey anti-goat Alexa Fluor 555 (Cat# A-21432 [also A21432], RRID:AB_2535853; Thermo Fisher Scientific). Nuclei were stained with Hoechst 33342 (40046; Biotium) at 1:10,000 dilution. All imaging was acquired on a Yokogawa CSU W1 spinning disk attached to a Nikon Ti2 eclipse with a Photometrics Prime 95B camera using Nikon Elements software (versions 5.20.00 to 5.21.02). Imaging was performed through a Nikon Plan Apo 60× 1.40 NA oil objective with Immersol 518 F (refractive index 1.518; Zeiss), and Perfect Focus 2.0 (Nikon) was engaged for all captures.

NTF2L domain of G3BP1 = biological target: T1, NTF2L domain of G3BP1 (Homo sapiens, UniProt Q13283); assay: SPR binding of compounds to sensor-immobilized G3BP1; details: for Kd: equilibrium analysis, 1:1 binding model, 25°C, pH 7.4; for Kd of inactive enantiomer relative to active compound: SPR, same domain
T1 construct: made in house; host or cells: E. coli BL21 (DE3)
T1 sequence (Q13283 11-133 limits assumed): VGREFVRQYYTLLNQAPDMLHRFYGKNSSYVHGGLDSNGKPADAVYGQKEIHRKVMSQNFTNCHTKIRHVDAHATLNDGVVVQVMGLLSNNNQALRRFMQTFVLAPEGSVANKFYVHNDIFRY
Protocol: Binding affinity for G3BP1 was measured by SPR assay using a Biacore 8K instrument (Cytiva) at 25°C at pH 7.4 (20 mM Tris, 300 mM NaCl, 0.05% Tween-20, 2% DMSO) using neutravidin sensor chips. The binding of solution phase molecules was measured to sensor-bound biotinylated, AVI-tagged versions of the NTF2L domain of G3BP1. G3BP1 was captured on the sensor surface at the beginning of each experiment at a level of ∼1,000 RU. A neutravidin-only surface was used as a reference. Binding affinity was measured by equilibrium analysis of double-reference subtracted data performed at seven different analyte concentrations. A 1:1 binding model was used to estimate affinity; the maximum binding response was typically about 90% of the theoretical maximum for a 1:1 interaction given the size of the protein and analytes. Binding at the end of a 90-s association phase was measured; data were only used where equilibrium binding was reached. No regeneration was performed between binding cycles as all tested molecules dissociated completely from the sensor at the end of each cycle. Estimation of binding affinity by kinetic analysis was not performed as kinetic constants were beyond the range that could be reliably measured by the instrumentation.

Row | SMILES | reduction of stress granule area (preformed granules) [1] [%] | stress granule formation by endogenous G3BP signal [2] | Kd (NTF2L domain of G3BP1) [µM] | Kd of inactive enantiomer relative to active compound (NTF2L domain of G3BP1) [fold]
1 | COCCC(NC(=O)C(C)NC(=O)C(NC(=O)C(NC(=O)C(F)CC(C)(C)C)C(C)(C)O)C(C)c1ccccc1)C(=O)N(C)Cc1ccccc1 (stereo not drawn) [G3Ia] | ~74 | effectively blocked stress granule formation | 0.54 | 
2 | COCCC(NC(=O)C(C)NC(=O)C(NC(=O)C(NC(=O)C(F)CC(C)(C)C)C(C)(C)O)C(C)c1ccccc1)C(=O)N(C)Cc1ccccc1 (stereo not drawn) [G3Ia′] |  | not | 75.5 | > 100
3 | CC(NC(=O)C(NC(=O)C(NC(=O)CCC(C)(C)C)C(C)(C)O)C(C)c1ccccc1)C(=O)N1CCCC1c1ccccc1 (stereo not drawn) [G3Ib] | ~84 | effectively blocked stress granule formation | 0.15 | 
4 | CC(NC(=O)C(NC(=O)C(NC(=O)CCC(C)(C)C)C(C)(C)O)C(C)c1ccccc1)C(=O)N1CCCC1c1ccccc1 (stereo not drawn) [G3Ib′] |  | not | 44.5 | > 100
